Laboratory results reported in patent US20210395239A1 (Hoffmann-La Roche Inc., priority 2018, published 2021).

Molecular target: T1, human TLR7 (Homo sapiens, UniProt Q9NYK1)
T1 construct: host or cells: HEK293 (HEK-Blue hTLR7)
T1 sequence (Q9NYK1 27-1049): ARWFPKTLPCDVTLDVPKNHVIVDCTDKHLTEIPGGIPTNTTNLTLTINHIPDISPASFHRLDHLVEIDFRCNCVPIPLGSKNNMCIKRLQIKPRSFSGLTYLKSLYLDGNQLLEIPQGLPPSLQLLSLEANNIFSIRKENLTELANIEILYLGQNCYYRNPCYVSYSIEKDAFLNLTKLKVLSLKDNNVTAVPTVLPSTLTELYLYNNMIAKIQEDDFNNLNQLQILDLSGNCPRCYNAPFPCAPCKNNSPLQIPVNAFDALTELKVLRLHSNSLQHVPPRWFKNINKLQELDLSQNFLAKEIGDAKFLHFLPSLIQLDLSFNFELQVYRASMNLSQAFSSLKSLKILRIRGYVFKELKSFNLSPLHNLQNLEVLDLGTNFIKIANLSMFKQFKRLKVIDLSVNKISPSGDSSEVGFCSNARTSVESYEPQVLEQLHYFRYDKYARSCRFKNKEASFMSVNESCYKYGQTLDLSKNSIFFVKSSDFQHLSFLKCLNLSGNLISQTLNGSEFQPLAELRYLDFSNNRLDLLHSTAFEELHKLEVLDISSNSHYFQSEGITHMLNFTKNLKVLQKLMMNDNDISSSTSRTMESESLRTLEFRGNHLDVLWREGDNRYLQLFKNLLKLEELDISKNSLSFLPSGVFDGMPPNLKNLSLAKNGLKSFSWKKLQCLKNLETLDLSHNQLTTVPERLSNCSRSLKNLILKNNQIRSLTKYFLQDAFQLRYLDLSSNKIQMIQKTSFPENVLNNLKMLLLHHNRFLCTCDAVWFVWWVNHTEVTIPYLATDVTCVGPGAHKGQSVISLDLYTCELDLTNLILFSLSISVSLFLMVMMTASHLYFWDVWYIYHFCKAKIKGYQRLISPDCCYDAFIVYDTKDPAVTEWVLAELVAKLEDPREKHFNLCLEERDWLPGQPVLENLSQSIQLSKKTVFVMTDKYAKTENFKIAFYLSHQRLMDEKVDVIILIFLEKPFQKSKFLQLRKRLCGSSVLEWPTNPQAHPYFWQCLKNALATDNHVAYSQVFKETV
Assay: HEK293-Blue-hTLR-7 cells assay (SEAP reporter, R848 stimulation)
Assay type: cell-based
Details: HEK293-Blue-hTLR7 cells, R848, 20 hrs; read-out: HEK/hTLR7 IC50
Outline: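 HEK293-Blue-hTLR7 cells (NF-κB/AP-1-driven SEAP reporter) were stimulated with R848 alongside serially diluted compound at 1% final DMSO for 20 h at 37 °C. Supernatant SEAP was then developed with QUANTI-Blue for 2 h at 37 °C and absorbance read at 620–655 nm; antagonism is measured as reduced reporter signal.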

Row | Compound | IC50 [nM]
1 | C[C@@H]1CN(c2ccc(C#N)c3ncccc23)C[C@H](CN2CCN(c3ccnc(N[C@H]4CNC[C@H]4F)n3)CC2)O1 [Example 24, 5-[(2S,6R)-2-[[4-[2-[[(3S,4R)-4-fluoropyrrolidin-3-yl]amino]pyrimidin-4-yl]piperazin-1-yl]methyl]-6-methyl-morpholin-4-yl]quinoline-8-carbonitrile] | 38
2 | C[C@@H]1CN(c2ccc(C#N)c3ncccc23)C[C@H](CN2CCN(c3ccnc(NC4CNC4)n3)CC2)O1 [Example 28, 5-[(2S,6R)-2-[[4-[2-(azetidin-3-ylamino)pyrimidin-4-yl]piperazin-1-yl]methyl]-6-methyl-morpholin-4-yl]quinoline-8-carbonitrile] | 11
3 | C[C@@H]1CN(c2ccc(C#N)c3ncccc23)C[C@H](CN2CCN(c3ccnc(N4CCN[C@@H](CO)C4)n3)CC2)O1 [Example 29, 5-[(2S,6R)-2-[[4-[2-[(3R)-3-(hydroxymethyl)piperazin-1-yl]pyrimidin-4-yl]piperazin-1-yl]methyl]-6-methyl-morpholin-4-yl]quinoline-8-carbonitrile] | 16
4 | C[C@@H]1CN(c2ccc(C#N)c3ncccc23)C[C@H](CN2CCN(c3ccnc(OCCN(C)C)n3)CC2)O1 [Example 30, 5-[(2S,6R)-2-[[4-[2-[2-(dimethylamino)ethoxy]pyrimidin-4-yl]piperazin-1-yl]methyl]-6-methyl-morpholin-4-yl]quinoline-8-carbonitrile] | 16
5 | C[C@@H]1CN(c2ccc(C#N)c3ncccc23)C[C@H](CN2CCN(c3ccnc(N4CCN(C(=O)[C@@H]5CCCN5)CC4)n3)CC2)O1 [Example 31, 5-[(2R,6S)-2-methyl-6-[[4-[2-[4-[(2S)-pyrrolidine-2-carbonyl]piperazin-1-yl]pyrimidin-4-yl]piperazin-1-yl]methyl]morpholin-4-yl]quinoline-8-carbonitrile] | 18
6 | C[C@@H]1CN(c2ccc(C#N)c3ncccc23)C[C@H](CN2CCN(c3ccnc(N4CCN(C(=O)CN(C)C)CC4)n3)CC2)O1 [Example 32, 5-[(2S,6R)-2-[[4-[2-[4-[2-(dimethylamino)acetyl]piperazin-1-yl]pyrimidin-4-yl]piperazin-1-yl]methyl]-6-methyl-morpholin-4-yl]quinoline-8-carbonitrile] | 6
7 | C[C@@H]1CN(c2ccc(C#N)c3ncccc23)C[C@H](CN2CCN(c3cccc(N4CCN(C)CC4)n3)CC2)O1 [Example 33, 5-[(2R,6S)-2-methyl-6-[[4-[6-(4-methylpiperazin-1-yl)-2-pyridyl]piperazin-1-yl]methyl]morpholin-4-yl]quinoline-8-carbonitrile] | 24

Now from value to molecule:

Row | IC50 [nM] | Compound
8 | 50 | C[C@@H]1CN(c2ccc(C#N)c3ncccc23)C[C@H](CN2CCN(c3ccnc(N4CC(N)C4)n3)CC2)O1 [Example 23, 5-[(2S,6R)-2-[[4-[2-(3-aminoazetidin-1-yl)pyrimidin-4-yl]piperazin-1-yl]methyl]-6-methyl-morpholin-4-yl]quinoline-8-carbonitrile]
9 | 26 | C[C@@H]1CN(c2ccc(C#N)c3ncccc23)C[C@H](CN2CCN(c3ccnc(N4CCNCC(O)C4)n3)CC2)O1 (stereo partly drawn) [Example 25, 5-[(2S,6R)-2-[[4-[2-(6-hydroxy-1,4-diazepan-1-yl)pyrimidin-4-yl]piperazin-1-yl]methyl]-6-methyl-morpholin-4-yl]quinoline-8-carbonitrile]
10 | 8 | CO[C@H]1CN(c2nccc(N3CCN(C[C@H]4CN(c5ccc(C#N)c6ncccc56)C[C@@H](C)O4)CC3)n2)C[C@@H]1N [Example 26, 5-[(2S,6R)-2-[[4-[2-trans-(3-amino-4-methoxy-pyrrolidin-1-yl)pyrimidin-4-yl]piperazin-1-yl]methyl]-6-methyl-morpholin-4-yl]quinoline-8-carbonitrile]
11 | 15 | C[C@@H]1CN(c2ccc(C#N)c3ncccc23)C[C@H](CN2CCN(c3ccnc(N4CCC(N)CC4)n3)CC2)O1 [Example 27, 5-[(2S,6R)-2-[[4-[2-(4-amino-1-piperidyl)pyrimidin-4-yl]piperazin-1-yl]methyl]-6-methyl-morpholin-4-yl]quinoline-8-carbonitrile]
